What was measured:
Format in all cases: biochemical
[1] = target: T1, Sulf-2 (Homo sapiens, UniProt Q8IWU5); experiment: Inhibition of Sulf-2-catalysed desulfation of 4-MUS to fluorescent MU; conditions: for inhibition at 1000 µM: 1 mM compound, 4-MUS substrate, means of two or more determinations, read-out: Sulf-2% inh @ 1 mM; for IC50: non-linear regression, 7 inhibitor concentrations in duplicate, mean ± SEM
T1 construct: host or cells: 293T cells, transiently transfected
Protocol: (§1) Compounds were assayed for their ability to inhibit the Sulf-2-catalysed desulfation of 4-methylumbelliferyl sulfate (4-MUS) to the fluorescent 4-methylumbelliferone (MU). To determine their sulfatase selectivity, inhibition of aryl sulfatases A (ARSA) and B (ARSB) was also assessed. To date no suitable benchmark inhibitors of these sulfatase have been reported. […] In the majority of cases the presence of a substituent on the B-ring was detrimental to Sulf-2 inhibition when compared with unsubstituted biphenyl sulfamate 76. Aminosulfates 54 and 62 and carboxylic acid 15 retained potency. […] Compounds 8, 10, 15, 50 and 51 were also relatively potent ARSA inhibitors. […] Aminosulfates 56 and 63 were the best Sulf-2 inhibitors lacking a trichloroethylsulfamate group.
1 – Biological assay protocols
Compounds were screened using 4-MUS as a substrate for Sulf-2 according to a protocol described by Morimoto-Tomita et al.1 Briefly 293T cells were transiently transfected with pcDNA3.1/Myc-His(-)-HSulf-2 DNA (Addgene) and TransIT-LT1 Transfection Reagent (Mirus) using a transfection mixture at the ratio 1:3 (µg DNA:
µL transfection reagent) in Opti-MEM I reduced serum medium (Gibco). Conditioned medium containing Sulf-2 was collected after 3 days and bound to HIS-Select Nickel affinity gel (Sigma) overnight at 4 °C. Beads were washed three times with washing buffer containing 50 mM HEPES (pH 7.5), 300 mM NaCl, 0.05% Tween 20, followed by washing once with washing buffer containing no tween. Beads were suspended in 50 mM Hepes (pH 7.5) and used in inhibition assays. 20 μL of bead slurry was incubated with 1 mM compound (in DMSO) plus 10X reaction buffer (500 mM HEPES pH 7.5, 100 mM CaCl2) for 1 h at 37 °C. The reaction was started by the addition of 20 μL of 20 mM 4-MUS (final concentration of 8 mM) and incubated at 37 °C for 1 h. The reaction was stopped with 100 μL 1 M Tris buffer (pH 10.4) and read at 460 nm following excitation at 355 nm in FLUOstar Omega plate reader (BMG Labtech) using Omega data analysis software. […]

[2] = target: T2, aryl sulfatase B (ARSB) (Homo sapiens, UniProt P15848); experiment: ARSB inhibition assay with 4-MUS substrate; conditions: for inhibition at 1000 µM: 1 mM compound, 4-MUS substrate, means of two or more determinations, read-out: ARSB% inh @ 1 mM; for IC50: non-linear regression, 7 inhibitor concentrations in duplicate, mean ± SEM
T2 construct: purchased R & D Systems
T2 sequence (P15848 37-533, species assumed): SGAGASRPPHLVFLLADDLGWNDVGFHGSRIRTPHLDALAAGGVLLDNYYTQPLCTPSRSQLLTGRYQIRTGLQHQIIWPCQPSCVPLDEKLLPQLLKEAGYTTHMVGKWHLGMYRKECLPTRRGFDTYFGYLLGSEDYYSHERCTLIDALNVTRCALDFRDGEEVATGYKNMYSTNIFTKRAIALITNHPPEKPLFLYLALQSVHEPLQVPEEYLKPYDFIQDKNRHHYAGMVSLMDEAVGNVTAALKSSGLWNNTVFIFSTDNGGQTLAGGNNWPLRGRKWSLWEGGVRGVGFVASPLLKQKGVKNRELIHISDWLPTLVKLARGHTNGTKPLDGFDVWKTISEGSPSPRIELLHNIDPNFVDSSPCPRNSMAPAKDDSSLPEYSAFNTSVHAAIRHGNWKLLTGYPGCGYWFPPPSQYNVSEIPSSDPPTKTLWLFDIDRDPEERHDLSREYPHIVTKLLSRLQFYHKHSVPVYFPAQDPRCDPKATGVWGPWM
Protocol: as §1
(§2) 1 – Biological assay protocols […]
(§3) Omega data analysis software.
(§4) ARSA and ARSB assay protocols
(§5) Compounds were screened in a 96-well black plate (Sterilin) using 4-MUS as a substrate, using 50 μL reaction mixture containing 40 ng of the commercially available enzymes (ARSA or ARSB from R & D Systems), 50 mM HEPES (pH = 4.5), 10 mM CaCl2, 1 mM test compound (dissolved in DMSO; final concentration of DMSO in reaction = 2%), and H2O (45 μL). The assay mixture was incubated for 1 h at 37 °C, followed by addition of 5 μL of 4-MUS (Km = 1.6 mM for ARSA and 612 μM for ARSB), and incubation for a further 1 h at 37 °C. The reaction was stopped with 100 μL of 1 M Tris (pH = 10.5) and read at 460 nm following excitation at 355 nm in FLUOstar Omega plate reader (BMG Labtech) using Omega data analysis software.

[3] = target: T3, aryl sulfatase A (ARSA) (Homo sapiens, UniProt P15289); experiment: ARSA inhibition assay with 4-MUS substrate; conditions: for inhibition at 1000 µM: 1 mM compound, 4-MUS substrate, means of two or more determinations, read-out: ARSA% inh @ 1 mM
T3 construct: purchased R & D Systems
T3 sequence (P15289 19-507): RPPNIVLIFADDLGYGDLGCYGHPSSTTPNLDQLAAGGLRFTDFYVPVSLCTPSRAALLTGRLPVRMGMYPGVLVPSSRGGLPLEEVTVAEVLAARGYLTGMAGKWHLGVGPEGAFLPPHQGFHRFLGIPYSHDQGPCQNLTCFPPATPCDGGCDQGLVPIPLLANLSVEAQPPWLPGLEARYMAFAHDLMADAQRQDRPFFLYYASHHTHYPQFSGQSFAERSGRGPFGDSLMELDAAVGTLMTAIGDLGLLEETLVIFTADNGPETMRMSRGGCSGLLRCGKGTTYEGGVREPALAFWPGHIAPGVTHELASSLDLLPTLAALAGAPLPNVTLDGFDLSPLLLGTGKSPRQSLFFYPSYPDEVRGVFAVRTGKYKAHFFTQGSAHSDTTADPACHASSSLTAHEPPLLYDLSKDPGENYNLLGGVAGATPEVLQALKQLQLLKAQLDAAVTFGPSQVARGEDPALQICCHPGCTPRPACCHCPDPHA
Protocol: as §1, §2, §3, §4, §5

[4] = non-linear regression, 7 inhibitor concentrations in duplicate, mean ± SEM

T1 sequence (Q8IWU5 25-870): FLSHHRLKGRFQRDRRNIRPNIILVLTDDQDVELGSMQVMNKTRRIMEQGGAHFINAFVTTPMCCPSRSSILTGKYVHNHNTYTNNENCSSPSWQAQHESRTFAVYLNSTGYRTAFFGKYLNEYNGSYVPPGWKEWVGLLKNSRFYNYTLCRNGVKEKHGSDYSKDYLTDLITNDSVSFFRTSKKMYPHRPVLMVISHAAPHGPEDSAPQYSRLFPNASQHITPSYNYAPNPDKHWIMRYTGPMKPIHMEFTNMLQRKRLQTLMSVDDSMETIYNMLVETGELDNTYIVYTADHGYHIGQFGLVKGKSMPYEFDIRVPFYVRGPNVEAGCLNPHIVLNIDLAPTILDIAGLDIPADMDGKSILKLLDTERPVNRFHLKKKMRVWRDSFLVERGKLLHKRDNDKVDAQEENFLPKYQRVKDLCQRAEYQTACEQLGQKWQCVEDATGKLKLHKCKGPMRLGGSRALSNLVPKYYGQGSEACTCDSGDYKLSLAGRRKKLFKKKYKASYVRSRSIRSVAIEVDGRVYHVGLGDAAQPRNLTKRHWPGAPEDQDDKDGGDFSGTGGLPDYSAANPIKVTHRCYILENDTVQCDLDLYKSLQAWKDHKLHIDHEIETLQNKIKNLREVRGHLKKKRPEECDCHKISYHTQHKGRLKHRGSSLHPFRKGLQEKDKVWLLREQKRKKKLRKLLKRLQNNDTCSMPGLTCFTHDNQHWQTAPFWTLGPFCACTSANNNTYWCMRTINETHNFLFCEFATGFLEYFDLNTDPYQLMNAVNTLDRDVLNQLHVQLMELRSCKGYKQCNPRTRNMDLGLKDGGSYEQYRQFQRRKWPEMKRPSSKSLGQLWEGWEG

With `NS(=O)(=O)Oc1cccc(Oc2cccc(NS(=O)(=O)OCC(Cl)(Cl)Cl)c2)c1` [Compound 52] the inhibition at 1000 µM [1] was 100%, the inhibition at 1000 µM [2] was 96% and the inhibition at 1000 µM [3] was 100%.

`NS(=O)(=O)Oc1cccc(Oc2ccc(NS(=O)(=O)OCC(Cl)(Cl)Cl)cc2)c1` [Compound 53] was tested, and the inhibition at 1000 µM [1] was 98%, the IC50 [1] was 390 ± 11 µM and the inhibition at 1000 µM [2] was 86%. For the same compound, the IC50 [2] was 116 ± 10 µM, the inhibition at 1000 µM [3] was 96% and the IC50 [3, 4] was 108 ± 2 µM.

Compound `NS(=O)(=O)Oc1cccc(-c2cccc(NS(=O)(=O)O)c2)c1` [Compound 54] has an inhibition at 1000 µM [1] of 31%, an inhibition at 1000 µM [2] of 0% and an inhibition at 1000 µM [3] of 0%.

`NS(=O)(=O)Oc1cccc(-c2ccc(NS(=O)(=O)O)cc2)c1` [Compound 55] showed an inhibition at 1000 µM [1] of 4%, an inhibition at 1000 µM [2] of 0% and an inhibition at 1000 µM [3] of 0%.

Work on `NS(=O)(=O)Oc1cccc(Oc2cccc(NS(=O)(=O)O)c2)c1` [Compound 56] yielded an inhibition at 1000 µM [1] of 58%, an inhibition at 1000 µM [2] of 85% and an inhibition at 1000 µM [3] of 95%.

With `NS(=O)(=O)Oc1cccc(Oc2ccc(NS(=O)(=O)O)cc2)c1` [Compound 57] the inhibition at 1000 µM [1] was 13%, the inhibition at 1000 µM [2] was 77% and the inhibition at 1000 µM [3] was 34%.

`NS(=O)(=O)Oc1cccc(-c2ccccc2N(S(=O)(=O)OCC(Cl)(Cl)Cl)S(=O)(=O)OCC(Cl)(Cl)Cl)c1` [Compound 60] was tested, and the inhibition at 1000 µM [1] was 10%, the inhibition at 1000 µM [2] was 0% and the inhibition at 1000 µM [3] was 63%.

Work on `NS(=O)(=O)Oc1cccc(Oc2ccccc2N(S(=O)(=O)OCC(Cl)(Cl)Cl)S(=O)(=O)OCC(Cl)(Cl)Cl)c1` [Compound 61] yielded an inhibition at 1000 µM [1] of 18%, an inhibition at 1000 µM [2] of 40% and an inhibition at 1000 µM [3] of 82%.

In the case of `NS(=O)(=O)Oc1cccc(-c2ccccc2NS(=O)(=O)O)c1` [Compound 62], the inhibition at 1000 µM [1] is reported as 37%, the inhibition at 1000 µM [2] is reported as 0% and the inhibition at 1000 µM [3] is reported as 26%.

`NS(=O)(=O)Oc1cccc(Oc2ccccc2NS(=O)(=O)O)c1` [Compound 63] gave an inhibition at 1000 µM [1] of 56%, an inhibition at 1000 µM [2] of 93% and an inhibition at 1000 µM [3] of 54%.

`NS(=O)(=O)Oc1cccc(Oc2ccccc2C(=O)O)c1` [Compound 73] was tested, and the inhibition at 1000 µM [1] was 10%, the inhibition at 1000 µM [2] was 0% and the inhibition at 1000 µM [3] was 44%.

Compound `NS(=O)(=O)Oc1cccc(Oc2cccc(C(=O)O)c2)c1` [Compound 74] has an inhibition at 1000 µM [1] of 30%, an inhibition at 1000 µM [2] of 0% and an inhibition at 1000 µM [3] of 49%.

Work on `NS(=O)(=O)Oc1cccc(Oc2ccc(C(=O)O)cc2)c1` [Compound 75] yielded an inhibition at 1000 µM [1] of 23%, an inhibition at 1000 µM [2] of 0% and an inhibition at 1000 µM [3] of 33%.

`NS(=O)(=O)Oc1cccc(-c2ccccc2)c1` [Compound 76] showed an inhibition at 1000 µM [1] of 38%, an inhibition at 1000 µM [2] of 65% and an inhibition at 1000 µM [3] of 14%.

With `CN(C)S(=O)(=O)Oc1cccc(-c2ccccc2)c1` [Compound 77] the inhibition at 1000 µM [1] was 0%.

For `NS(=O)(=O)Oc1cccc(Oc2ccccc2)c1` [Compound 78], the inhibition at 1000 µM [1] was 32%.

Compound `O=S(=O)(Nc1cccc(-c2ccccc2)c1)OCC(Cl)(Cl)Cl` [Compound 79] has an inhibition at 1000 µM [1] of 100%, an IC50 [1] of 254 ± 3 µM and an inhibition at 1000 µM [2] of 61%. For the same compound, the IC50 [2] was 30 ± 11 µM, the inhibition at 1000 µM [3] was 0% and the “ARSA IC50” value [3, 4] was “No inhibition”.

For `O=S(=O)(Nc1cccc(Oc2ccccc2)c1)OCC(Cl)(Cl)Cl` [Compound 80], the inhibition at 1000 µM [1] was 99%, the IC50 [1] was 298 ± 3 µM and the inhibition at 1000 µM [2] was 99%. For the same compound, the IC50 [2] was 34 ± 9 µM, the inhibition at 1000 µM [3] was 74% and the “ARSA inhibition over concentration range” value ([3]; concentration range 0.025–1 mM, IC50 could not be determined) was “Concentration-dependent inhibition was not observed”.

`O=S(=O)(OCC(Cl)(Cl)Cl)Oc1cccc(-c2ccccc2)c1` [Compound 81] showed an inhibition at 1000 µM [1] of 1%, an inhibition at 1000 µM [2] of 85% and an inhibition at 1000 µM [3] of 70%.
